Earlier results, collected in patent US8293868B2 (priority 2004, dated 2012).

Test system: α-subunit of the P. americana high conductance calcium-activated potassium channel (pSlo)

charybdotoxin
block of pSlo channels previously reported: about 80%
